pEC50: −log10 of the molar value.

The experiment deals with NQO1 specific enzyme activity in BEAS-2B cells (marker for NRF2 activation). Nature of the experiment: BEAS-2B NQO1 MTT Assay. In kind it is cell-based. To be noted: Homo sapiens, BEAS-2B, 48 h, NQO1 specific activity induction, 48 hours with compound. Put shortly:
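Following 48 h compound treatment at 37° C., 5% CO2, cells were lysed and MTT cocktail added. Product formation was followed kinetically at 570 nm for 30 min. Rate (Delta OD/min) against log concentration was fitted with 3 parameters to give pEC50 for induction of NQO1 specific activity.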
On to `CCn1cc(CO[C@H](c2ccc(C)c(CN3C[C@@H](C)Cc4ccncc4S3(=O)=O)c2)C(C)(C)C(=O)O)nn1` [Example 61, (3R)-((1-ethyl-1H-1,2,3-triazol-4-yl)methoxy)-2,2-dimethyl-3-(4-methyl-3-(((S)-4-methyl-1,1-dioxido-4,5-dihydropyrido[4,3-f][1,2]thiazepin-2(3H)-yl)methyl)phenyl)propanoic acid], for which the negative logarithm of the EC50 (pEC50) is over 9.00.

As for `CCn1cc(CO[C@H](c2ccc(C)c(CN3C[C@@H](C)Cc4ncccc4S3(=O)=O)c2)C(C)(C)C(=O)O)nn1` [Example 62, (3R)-((1-ethyl-1H-1,2,3-triazol-4-yl)methoxy)-2,2-dimethyl-3-(4-methyl-3-(((S)-4-methyl-1,1-dioxido-4,5-dihydropyrido[2,3-f][1,2]thiazepin-2(3H)-yl)methyl)phenyl)propanoic acid], the pEC50 was over 9.00.

`CCn1cc(CO[C@@H](c2ccc(C)c(CN3C[C@H](C)Cc4ccncc4S3(=O)=O)c2)C(C)(C)C(=O)O)nn1` [Example 63, (3S)-((1-ethyl-1H-1,2,3-triazol-4-yl)methoxy)-2,2-dimethyl-3-(4-methyl-3-(((R)-4-methyl-1,1-dioxido-4,5-dihydropyrido[4,3-f][1,2]thiazepin-2(3H)-yl)methyl)phenyl)propanoic acid]: the negative-log EC50 (pEC50) is 5.00 to 6.00.

For `CCn1cc(CO[C@@H](c2ccc(C)c(CN3C[C@H](C)Cc4ncccc4S3(=O)=O)c2)C(C)(C)C(=O)O)nn1` [Example 64, (3S)-((1-ethyl-1H-1,2,3-triazol-4-yl)methoxy)-2,2-dimethyl-3-(4-methyl-3-(((R)-4-methyl-1,1-dioxido-4,5-dihydropyrido[2,3-f][1,2]thiazepin-2(3H)-yl)methyl)phenyl)propanoic acid], the negative logarithm of the EC50 (pEC50) is 6.00 to 7.00.

As to `CCn1cc(CO[C@@H](c2ccc(C)c(CN3C[C@H](C)Cc4ccccc4S3(=O)=O)c2)C(C)(C)C(=O)O)nn1` [Example 65, (3S)-((1-ethyl-1H-1,2,3-triazol-4-yl)methoxy)-2,2-dimethyl-3-(4-methyl-3-(((R)-4-methyl-1,1-dioxido-4,5-dihydrobenzo[f][1,2]thiazepin-2(3H)-yl)methyl)phenyl)propanoic acid], the negative logarithm of the EC50 (pEC50) is 6.00 to 7.00.

For `CCn1cc(CO[C@H](c2ccc(C)c(CN3C[C@H](C)Cc4ccncc4S3(=O)=O)c2)C(C)(C)C(=O)O)nn1` [Example 66, (3R)-((1-ethyl-1H-1,2,3-triazol-4-yl)methoxy)-2,2-dimethyl-3-(4-methyl-3-(((R)-4-methyl-1,1-dioxido-4,5-dihydropyrido[4,3-f][1,2]thiazepin-2(3H)-yl)methyl)phenyl)propanoic acid], the negative-log EC50 (pEC50) was 6.00 to 7.00.

For the compound `CCCn1cc(CO[C@H](c2ccc(C)c(CN3C[C@H](C)Cc4ccncc4S3(=O)=O)c2)C(C)(C)C(=O)O)nn1` [Example 67, (R)-2,2-dimethyl-3-(4-methyl-3-(((R)-4-methyl-1,1-dioxido-4,5-dihydropyrido[4,3-f][1,2]thiazepin-2(3H)-yl)methyl)phenyl)-3-((1-propyl-1H-1,2,3-triazol-4-yl)methoxy)propanoic acid], the pEC50 was 6.00 to 7.00.

Regarding `CCn1cc(CO[C@H](c2ccc(C)c(CN3C[C@H](C)Cc4ncccc4S3(=O)=O)c2)C(C)(C)C(=O)O)nn1` [Example 68, (3R)-((1-ethyl-1H-1,2,3-triazol-4-yl)methoxy)-2,2-dimethyl-3-(4-methyl-3-(((R)-4-methyl-1,1-dioxido-4,5-dihydropyrido[2,3-f][1,2]thiazepin-2(3H)-yl)methyl)phenyl)propanoic acid], the pEC50 is 7.00 to 8.00.

As for `CC[C@@H]1Cc2ccccc2S(=O)(=O)N(Cc2cc([C@H](OCc3cn(CC)nn3)C(C)(C)C(=O)O)ccc2C)C1` [Example 69, (3S)-((1-ethyl-1H-1,2,3-triazol-4-yl)methoxy)-2,2-dimethyl-3-(4-methyl-3-(((R)-4-ethyl-1,1-dioxido-4,5-dihydrobenzo[f][1,2]thiazepin-2(3H)-yl)methyl)phenyl)propanoic acid], the pEC50 is 7.00 to 8.00.

For the compound `CCn1cc(CO[C@H](c2ccc(C)c(CN3C[C@H](C)Cc4ccccc4S3(=O)=O)c2)C(C)(C)C(=O)O)nn1` [Example 70, (3R)-((1-ethyl-1H-1,2,3-triazol-4-yl)methoxy)-2,2-dimethyl-3-(4-methyl-3-(((R)-4-methyl-1,1-dioxido-4,5-dihydrobenzo[f][1,2]thiazepin-2(3H)-yl)methyl)phenyl)propanoic acid], the negative-log EC50 (pEC50) is 7.00 to 8.00.

As to `COCCOCCn1cc(CO[C@@H](c2ccc(C)c(CN3C[C@@H](C)Oc4ccccc4S3(=O)=O)c2)C(C)(C)C(=O)O)nn1` [Example 71, (3S)-((1-(2-(2-methoxyethoxy)ethyl)-1H-1,2,3-triazol-4-yl)methoxy)-2,2-dimethyl-3-(4-methyl-3-(((R)-4-methyl-1,1-dioxido-3,4-dihydro-2H-benzo[b][1,4,5]oxathiazepin-2-yl)methyl)phenyl)propanoic acid], the negative logarithm of the EC50 (pEC50) was 7.00 to 8.00.

In the case of `CCn1cc(CO[C@@H](c2ccc(C)c(CN3C[C@@H](C)Cc4ncccc4S3(=O)=O)c2)C(C)(C)C(=O)O)nn1` [Example 72, (3S)-((1-ethyl-1H-1,2,3-triazol-4-yl)methoxy)-2,2-dimethyl-3-(4-methyl-3-(((S)-4-methyl-1,1-dioxido-4,5-dihydropyrido[2,3-f][1,2]thiazepin-2(3H)-yl)methyl)phenyl)propanoic acid], the pEC50 is 7.00 to 8.00.

As to `CCn1cc(COC(c2ccc(C)c(CN(Cc3ccccn3)S(=O)(=O)c3cccc(Br)c3)c2)C(C)(C)C(=O)O)nn1` (stereo not shown) [Example 74, 3-(3-(((3-Bromo-N-(pyridin-2-ylmethyl)phenyl)sulfonamido)methyl)-4-methylphenyl)-3-((1-ethyl-1H-1,2,3-triazol-4-yl)methoxy)-2,2-dimethylpropanoic acid], the negative logarithm of the EC50 (pEC50) is 7.00 to 8.00.

Take `CCn1cc(CO[C@@H](c2ccc(C)c(CN3C[C@@H](C)Cc4ccccc4S3(=O)=O)c2)C(C)(C)C(=O)O)nn1` [Example 75, (3S)-((1-ethyl-1H-1,2,3-triazol-4-yl)methoxy)-2,2-dimethyl-3-(4-methyl-3-(((S)-4-methyl-1,1-dioxido-4,5-dihydrobenzo[f][1,2]thiazepin-2(3H)-yl)methyl)phenyl)propanoic acid]: the negative-log EC50 (pEC50) is 8.00 to 9.00.

Take `CCCn1cc(CO[C@H](c2ccc(C)c(CN3C[C@H](C)Cc4ccc(F)cc4S3(=O)=O)c2)C(C)(C)C(=O)O)nn1` [Example 76, (3R)-(3-(((R)-8-fluoro-4-methyl-1,1-dioxido-4,5-dihydrobenzo[f][1,2]thiazepin-2(3H)-yl)methyl)-4-methylphenyl)-2,2-dimethyl-3-((1-propyl-1H-1,2,3-triazol-4-yl)methoxy)propanoic acid]: the pEC50 was 8.00 to 9.00.

`CC[C@@H]1Cc2ccccc2S(=O)(=O)N(Cc2cc([C@@H](OCc3cn(CC)nn3)C(C)(C)C(=O)O)ccc2C)C1` [Example 77, (3R)-((1-ethyl-1H-1,2,3-triazol-4-yl)methoxy)-2,2-dimethyl-3-(4-methyl-3-(((R)-4-ethyl-1,1-dioxido-4,5-dihydrobenzo[f][1,2]thiazepin-2(3H)-yl)methyl)phenyl)propanoic acid]: the pEC50 is 8.00 to 9.00.

The term pEC50 denotes −log10 of the EC50, conventionally taken in molar units.

The values above are taken from patent US12091409B2, “Ether linked triazoles as NRF2 activators” (ASTEX THERAPEUTICS LIMITED, priority 2016, dated 2024).
